Assay [1] has as its system miR-448. Nature of the assay: miR-448 level by qPCR in RL14 human cardiomyocytes. It counts as cell-based. The conditions noted are these: for increase of miR-448 by deferoxamine: then deferoxamine six hours; for miR-448 expression: RL14 cells stimulated with hypoxia-mimetic chemical for 24 hours, normalized with RNU6. The protocol: Human fetal cardiomyocyte cell line RL14 (ATCC RL-14, ATCC, Manassas, VA) cells were grown in DMEM/F-12 nutrient mixture (GE Healthcare Life Sciences, Logan, UT) supplemented with 12.5% (v/v) fetal bovine serum (Gibco, Grand Island, NY) and penicillin-streptomycin (10,000 U/mL; Gibco, Grand Island, NY). HEK293T cells were maintained in DMEM high glucose supplemented with 10% fetal bovine serum and penicillin-streptomycin. hiPSC-cardiomyocytes (iCELL Cardiomyocytes) were obtained from Cellular Dynamics International (Madison, WI). iCELL cardiomyocytes were seeded and maintained using iCELL Cardiomyocyte Plating Medium and Maintenance Medium (FUJIFILM Cellular Dynamics, Inc., Madison, WI). For hypoxic conditions, the cells were cultured in an hypoxic incubator chamber (STEMCELL Technologies, Vancouver, BC) using pre-incubated culture media or were treated with hypoxic-mimetic chemicals, deferoxamine (DFX) and cobalt chloride (CoCl2) (Sigma-Aldrich, St. Louis, MO) as previously described (Chachami et al., 2004, Am J Respir Cell Mol Biol 31:544-551; Woo et al, 2006, Biochem Biophys Res Commun 343:8-14).
Syn-hsa-miR-448 miScript miRNA mimic, anti-hsa-miR-448 miScript miRNA inhibitor, and its negative controls were purchased from Qiagen (Valencia, CA). REST siRNA and its negative control were obtained from Integrated DNA Technologies (Coralville, IA). The cells were transfected using HiPerFect Transfection Reagent (Qiagen, Valencia, CA) following the recommendations of the manufacturer. Plasmid DNA was transfected into cultured cells using SuperFect transfection reagent (Qiagen, Valencia, CA) following the manufacturer's protocol.
Total RNA was prepared using RNeasy Plus Mini Kit or miRNeasy Mini Kit (Qiagen, Valencia, CA) according to the manufacturer's instructions. Reverse transcription was performed with a First Strand cDNA Synthesis kit (Promega, Madison, WI). cDNA for miRNA detection was generated by the miScript II RT Kit (Qiagen, Valencia, CA). A reverse transcription quantitative real-time PCR was performed with SYBR Green PCR Master Mix (Thermo Fisher Scientific, Waltham, MA) using the 7500Fast Real-Time PCR system (Thermo Fisher Scientific, Waltham, MA) and miScript SYBR Green PCR Kit with miScript primer assays to detect the expression of miRNA. The primer sequences were as follows:
Hs_miR-448_1 miScript Primer Assay (5′-[…]-3′; (SEQ ID NO:1; Qiagen, Valencia, CA) was used for detecting miR-448, and the Hs_RNU6-2_11 miScript Primer Assay (Qiagen, Valencia, CA) was used as an endogenous control. The relative fold change was calculated by the 2^−ΔΔCt method, and the measurements were normalized with respect to the endogenous control (RNU6, GAPDH).

Assay [2] deals with Nav1.5. In words: Nav1.5 protein level by Western blotting in RL14 human cardiomyocytes. The conditions noted are these: cardiomyocytes treated for 24 hours. It counts as cell-based. On the procedure:
Human fetal cardiomyocyte cell line RL14 (ATCC RL-14, ATCC, Manassas, VA) cells were grown in DMEM/F-12 nutrient mixture (GE Healthcare Life Sciences, Logan, UT) supplemented with 12.5% (v/v) fetal bovine serum (Gibco, Grand Island, NY) and penicillin-streptomycin (10,000 U/mL; Gibco, Grand Island, NY). HEK293T cells were maintained in DMEM high glucose supplemented with 10% fetal bovine serum and penicillin-streptomycin. hiPSC-cardiomyocytes (iCELL Cardiomyocytes) were obtained from Cellular Dynamics International (Madison, WI). iCELL cardiomyocytes were seeded and maintained using iCELL Cardiomyocyte Plating Medium and Maintenance Medium (FUJIFILM Cellular Dynamics, Inc., Madison, WI). […]
Cells were washed twice with ice-cold PBS and disrupted in Cell Lysis Buffer (Cell Signaling Technology, Danvers, MA) with Protease and Phosphatase Inhibitor Cocktail (Thermo Fisher Scientific, Waltham, MA) on ice for 30 minutes. […] The total protein concentration was quantified using the BCA Protein Assay Kit (Pierce, Thermo Fisher Scientific, Waltham, MA). […]
After TBST washing, the membrane was incubated with horseradish peroxidase (HRP)-conjugated secondary antibody (1:5000) for 90 min at room temperature. […] The images were analyzed using ImageJ software to measure band density. […]

The structures appear in SMILES notation.

From patent publication US12612627B2, “Compositions and methods for increasing sodium current in cardiac cells” (REGENTS OF THE UNIVERSITY OF MINNESOTA, priority 2020, dated 2026) come the findings set out here.

Consider `Cc1ccc(S(=O)(=O)/C=C/C#N)cc1` [Bay11-7028], for which the “increase of miR-448 by deferoxamine” value in assay [1] (0.5 μM or 2 μM for 30 minutes) was “inhibited”. For the compound `O=S(=O)(NCCSSCCNS(=O)(=O)c1cc(Cl)ccc1Cl)c1cc(Cl)ccc1Cl` [KC7F2], in assay [1] (5 μM or 20 μM for 30 minutes), the “increase of miR-448 by deferoxamine” value is on record as “inhibited”. As for `C=CCONC(=O)c1ccc2nc(-c3ccccc3O)[nH]c2c1` [X5050], in assay [2], the Nav1.5 protein level entry is reported as “decreased”.

As for `[Cl][Co][Cl]` [cobalt chloride], the miR-448 expression result in assay [1] is “increased”. Take `COC(=O)CNC(=O)C(=O)OC` [dimethyloxallyl glycine]: the miR-448 expression result in assay [1] is “increased”.
